From patent publication US8815831B2, “Treatment of Acinetobacter with alginate oligomers and antibiotics” (priority 2009, dated 2014)
One block for each compound: values may come before it.

Experiments:
[1] = test system: Staphylococcus aureus NCTC 6571 MIC CONTROL STRAIN (Oxford Staph.); experiment: Minimum Inhibitory Concentration assay (96-well, CAMHB), Example 1; assay type: cell-based; conditions: S. Aur
Acinetobacter strains = experiment: MIC assays of Example 3, Tables 3 and 4 taken together; assay type: cell-based, Acinetobacter baumannii and Acinetobacter Iwoffii; conditions: in one Acinetobacter strain or another
Protocol: (§1) MIC assays as described in Example 1 were conducted using the following Acinetobacter strains, antibiotics and concentrations of OligoCF-5/20 as described in Tables 3 and 4.
(§2) • V19* 7789 Acinetobacter baumannii • V20* 8065 Acinetobacter Iwoffii MDR Strains • V4* MDR ACB (Libya) Acinetobacter baumannii • V9* (Egypt) Acinetobacter baumannii • V10* (Egypt) Acinetobacter Iwoffii • V22* 6056 Acinetobacter Iwoffii
Further MIC assays were conducted with the various strains and antibiotics recited in Table 4 using the following protocol.

[2] = test system: Multidrug resistant Acinetobacter baumannii isolated from a source in Libya; experiment: Minimum Inhibitory Concentration assay (96-well, CAMHB), Examples 1 and 2
Protocol: Antibiotics were diluted in cation-adjusted Mueller-Hinton broth (CAMHB) or CAMHB with G-fragments (Oligo CF-5/20 90-95% G residues) at 2%, 6% or 10%.
Bacterial cultures at 0.5 McFarland standard were diluted ten-fold in CAMHB and 5 μl added to the microtiter plates containing the antibiotic serial dilutions. Plates were wrapped in parafilm and incubated at 37° C. for 16-20 hours. MIC values for each antibiotic were determined as the lowest concentration at which there was no visible growth.

[3] = test system: Acinetobacter baumannii strains V9, V19; experiment: MIC assays as described in Example 1, Example 3 (Table 3); assay type: cell-based; conditions: strain V19
Protocol: as §1, §2

[4] = +2% G (G-fragments Oligo CF-5/20)
[5] = +6% G (G-fragments Oligo CF-5/20)
[6] = +10% G (G-fragments Oligo CF-5/20)
[7] = A. bau, +2% G (G-fragments Oligo CF-5/20)
[8] = A. bau, +6% G (G-fragments Oligo CF-5/20)
[9] = A. bau, +10% G (G-fragments Oligo CF-5/20)

MIC value, Ceftazidime with azithromycin at 4 μg/ml ([1]; 0 G (no G-fragments)): <4 μg/ml Az
MIC value, Ceftazidime with azithromycin at 8 μg/ml ([1]; 0 G (no G-fragments)): <8 μg/ml Az
MIC value, Ciprofloxacin with azithromycin at 4 μg/ml ([1]; 0 G (no G-fragments)): <4 μg/ml Az
MIC value, Ciprofloxacin with azithromycin at 8 μg/ml ([1]; 0 G (no G-fragments)): <8 μg/ml Az
MIC value, Ceftazidime with azithromycin at 4 μg/ml [1, 4]: <4 μg/ml Az
MIC value, Ceftazidime with azithromycin at 8 μg/ml [1, 4]: <8 μg/ml Az
MIC value, Ciprofloxacin with azithromycin at 4 μg/ml [1, 4]: <4 μg/ml Az
MIC value, Ciprofloxacin with azithromycin at 8 μg/ml [1, 4]: <8 μg/ml Az
MIC value, Ceftazidime with azithromycin at 4 μg/ml [1, 5]: <4 μg/ml Az
MIC value, Ceftazidime with azithromycin at 8 μg/ml [1, 5]: <8 μg/ml Az
MIC value, Ciprofloxacin with azithromycin at 4 μg/ml [1, 5]: <4 μg/ml Az
MIC value, Ciprofloxacin with azithromycin at 8 μg/ml [1, 5]: <8 μg/ml Az
MIC value, Ceftazidime with azithromycin at 4 μg/ml [1, 6]: <4 μg/ml Az
MIC value, Ceftazidime with azithromycin at 8 μg/ml [1, 6]: <8 μg/ml Az
MIC value, Ciprofloxacin with azithromycin at 4 μg/ml [1, 6]: <4 μg/ml Az
MIC value, Ciprofloxacin with azithromycin at 8 μg/ml [1, 6]: <8 μg/ml Az
effect of increasing concentrations of OligoCF-5/20 (0-10%) on MIC values (Tables 3 and 4) (Acinetobacter strains): decreases MIC values
MIC value, Ceftazidime with azithromycin at 4 μg/ml [2, 7]: <4 μg/ml Az
MIC value, Ceftazidime with azithromycin at 8 μg/ml [2, 7]: <8 μg/ml Az
MIC value, Ciprofloxacin with azithromycin at 8 μg/ml [2, 7]: <8 μg/ml Az
MIC value, Ciprofloxacin with azithromycin at 4 μg/ml: azithromycin part of the inhibitory combination ([2]; A. bau, +2% G (G-fragments Oligo CF-5/20), together with 64 Cpr): 4 µg/mL
MIC value, Ceftazidime with azithromycin at 4 μg/ml [2, 8]: <4 μg/ml Az
MIC value, Ceftazidime with azithromycin at 8 μg/ml [2, 8]: <8 μg/ml Az
MIC value, Ciprofloxacin with azithromycin at 4 μg/ml [2, 8]: <4 μg/ml Az
MIC value, Ciprofloxacin with azithromycin at 8 μg/ml [2, 8]: <8 μg/ml Az
MIC value, Ceftazidime with azithromycin at 4 μg/ml [2, 9]: <4 μg/ml Az
MIC value, Ceftazidime with azithromycin at 8 μg/ml [2, 9]: <8 μg/ml Az
MIC value, Ciprofloxacin with azithromycin at 4 μg/ml [2, 9]: <4 μg/ml Az
MIC value, Ciprofloxacin with azithromycin at 8 μg/ml [2, 9]: <8 μg/ml Az
effect of OligoCF-5/20 on the MIC value for azithromycin ([2]; Acinetobacter organism, azithromycin 8 or 4 μg/ml): greatly reduces
Compound: CC[C@H]1OC(=O)[C@H](C)[C@@H](O[C@H]2C[C@@](C)(OC)[C@@H](O)[C@H](C)O2)[C@H](C)[C@@H](O[C@@H]2O[C@H](C)C[C@H](N(C)C)[C@H]2O)[C@](C)(O)C[C@@H](C)CN(C)[C@H](C)[C@@H](O)[C@]1(C)O [azithromycin]
inhibition of growth by azithromycin combined with G-fragments ([2]; 4 μg/ml azithromycin and 2% or more G-fragments): completely inhibited
inhibition of growth by azithromycin in the absence of G-fragments ([2]; azithromycin at 4 μg/ml and at 8 μg/ml, no G-fragments): not capable of inhibiting growth

effect of increasing concentrations of OligoCF-5/20 on MIC values (Table 3) [3]: no effect
Compound: C[C@@H](O)[C@H]1C(=O)N2C(C(=O)O)=C(SCCN=CN)C[C@H]12 [imipenem]

effect of increasing concentrations of OligoCF-5/20 (0-10%) on MIC values (Tables 3 and 4) (Acinetobacter strains): decreases MIC values
Compound: CC[C@H]1OC(=O)[C@H](C)[C@@H](O[C@H]2C[C@@](C)(OC)[C@@H](O)[C@H](C)O2)[C@H](C)[C@@H](O[C@@H]2O[C@H](C)C[C@H](N(C)C)[C@H]2O)[C@](C)(O)C[C@@H](C)/C(=N\OCOCCOC)[C@H](C)[C@@H](O)[C@]1(C)O [roxithromycin]
